Test results: patent US12461089B2, “Olfactory receptor involved in the perception of musk fragrance and the use thereof” (ChemoSensoryX Biosciences SA, priority 2017, dated 2025)
Like-named read-outs stand apart in the source and are kept apart here.

Assays:
Format in all cases: cell-based
chimeric OR5A2_variant 1 = target: T1, chimeric OR5A2_variant 1 (Homo sapiens, UniProt Q8NGI9, F293L/H55R/I289L/M58T); assay: Luciferase reporter concentration-response analysis on chimeric OR5A2_variant 1; settings: CRE-luciferase; empty vector pEFIBRHO as control
T1 construct: expressed in transfected cells; host or cells: HEK293T-RTP1A1/RTP2
T1 sequence (Q8NGI9 with tags, fused parts or gaps H55R/M58T/I289L/F293L): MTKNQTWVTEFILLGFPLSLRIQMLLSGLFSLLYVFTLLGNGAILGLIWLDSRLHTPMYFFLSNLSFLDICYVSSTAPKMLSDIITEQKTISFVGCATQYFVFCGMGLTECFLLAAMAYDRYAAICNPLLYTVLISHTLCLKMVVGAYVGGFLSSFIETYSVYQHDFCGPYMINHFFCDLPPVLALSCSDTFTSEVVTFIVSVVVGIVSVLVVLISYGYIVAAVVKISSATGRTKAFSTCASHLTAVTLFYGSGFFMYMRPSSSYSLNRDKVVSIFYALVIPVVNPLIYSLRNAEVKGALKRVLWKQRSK

OR5A2_variant 1 = target: T2, OR5A2_variant 1 (Homo sapiens, UniProt Q8NGI9); assay: Luciferase reporter concentration-response analysis on OR5A2_variant 1; settings: for activation of OR5A2 (OR5A2_variant 1), concentration-response: CRE-luciferase, semi-logarithmic serial dilutions, empty vector pEFIBRHO as control
T2 construct: expressed in transfected cells; host or cells: HEK293T-RTP1A1/RTP2
T2 sequence (Q8NGI9 1-324): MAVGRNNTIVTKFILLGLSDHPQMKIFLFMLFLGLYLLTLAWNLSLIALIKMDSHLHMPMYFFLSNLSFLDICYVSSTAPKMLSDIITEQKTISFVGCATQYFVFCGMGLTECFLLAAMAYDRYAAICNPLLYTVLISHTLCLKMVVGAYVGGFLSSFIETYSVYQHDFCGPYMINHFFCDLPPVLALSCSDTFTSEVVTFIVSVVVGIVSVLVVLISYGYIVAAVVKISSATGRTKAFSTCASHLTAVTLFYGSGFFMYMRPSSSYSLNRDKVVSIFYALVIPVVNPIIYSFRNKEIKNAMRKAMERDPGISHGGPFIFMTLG

OR11A1 = target: T3, OR11A1 (Homo sapiens, UniProt Q9GZK7); assay: Luciferase reporter concentration-response analysis on OR11A1
T3 construct: expressed in transfected cells; host or cells: HEK293T-RTP1A1/RTP2
T3 sequence (Q9GZK7 1-315): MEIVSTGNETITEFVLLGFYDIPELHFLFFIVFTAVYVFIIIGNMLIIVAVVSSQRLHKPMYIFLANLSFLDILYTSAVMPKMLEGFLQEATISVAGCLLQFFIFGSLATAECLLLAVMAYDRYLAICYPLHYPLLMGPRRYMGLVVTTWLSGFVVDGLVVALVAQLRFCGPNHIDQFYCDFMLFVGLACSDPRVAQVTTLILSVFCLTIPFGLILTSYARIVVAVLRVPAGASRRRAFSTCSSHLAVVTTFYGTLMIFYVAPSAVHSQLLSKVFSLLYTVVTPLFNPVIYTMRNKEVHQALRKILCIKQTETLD

[1] = concentration-response analysis, luciferase reporter, values given as negative (log) numbers, read-out: calculated EC50, OR5A2 (converted)

| Structure (SMILES) | activation of chimeric OR5A2_variant 1, concentration-response (chimeric OR5A2_variant 1) | activation of OR5A2 (OR5A2_variant 1), concentration-response (OR5A2_variant 1) | EC50 (OR5A2_variant 1; [1]) [µM] | EC50 (OR11A1) [nM] | EC50 (OR5A2_variant 1) [µM] |
| --- | --- | --- | --- | --- | --- |
| CC(=O)c1c(C)c([N+](=O)[O-])c(C(C)(C)C)c([N+](=O)[O-])c1C [Musk Ketone, 4-tert-butyl-2,6-dimethyl-3,5-dinitroacetophenone] | shows dose response curves | shows dose response curves | 107 | – | – |
| O=C1CCC/C=C\CCCCCCCCCC1 [Velvione] | shows dose response curves | shows dose response curves | 28.8 | – | – |
| Cc1c([N+](=O)[O-])c(C)c([N+](=O)[O-])c(C(C)(C)C)c1[N+](=O)[O-] [Musk Xylene, 1-tert-butyl-3,5-dimethyl-2,4,6-trinitrobenzene] | shows dose response curves | shows dose response curves | – | 1860 | 1.86 |
